{"source": "patent US8412460B2", "about": "“Methods and systems for characterizing a cellular constituent using response profiles” (priority 2000, dated 2013)", "key": {"wild type yeast cells": {"tested_on": "wild type yeast cells", "settings": "levels that give maximal repression of promoter activity (10 micrograms/nil); cited from earlier work"}, "S. cerevisiae": {"tested_on": "S. cerevisiae", "experiment": "Two-color cDNA microarray expression profiling of mutant or compound-treated yeast cultures (300-experiment compendium) with hierarchical clustering", "assay_type": "cell-based", "settings": "for mutant in the affected pathway whose profile the profile caused by the inhibitory compound resembles / DNA-damage/S-phase arrest inducible RNR2, RNR3 and RNR4 transcripts: FIG. 9B; for clustering of treatment profile with profiles from cell wall related mutants gas1Δ, spf1Δ, and amp1Δ: FIG. 11A", "procedure": "Experimental (mutant or chemically treated) cultures were grown, harvested and processed in parallel with corresponding wild-type or control cultures. A complete list of experimental conditions is provided, below, in Table 2.\nSeveral colonies of similar size were picked from freshly-streaked YAPD agar plates into liquid Synthetic Complete medium (SC) with 2% glucose, grown overnight at 30° C. to mid-log phase, diluted to 0.4-1.0×10^6 cells/mL, and grown an addition 5-7 hours until reaching 0.4-1.0[…], at which point they were pelleted by centrifugation from 2 minutes at room temperature and frozen in liquid nitrogen. The final optical densities of experimental and control cultures were matched as closely as possible. For experiments involving treatments with chemical compounds (including doxycycline), compounds were added at the beginning of the 5-7 hour final groth phase, with equal amounts of solvent or doxycyline added to control cultures as appropriate. Total RNA was prepared by phenol:chloroform extraction followed by ethanol precipitation as described previously (see, e.g., Marton et al., 1998, Nat. Med. 4:1293-1301) except that the step vortexing with glass beads was replaced with a 10 minute incubation at 65° C. followed by 1 minute of vortexing. Poly-A+ RNA purification, cDNA labeling, microarray production, and microarray hybridization and washing were also done as previously described (e.g., in Marton et al., supra) with measurements taken in fluor-reversed pairs. Arrays were scanned, images were quantitated and physical artifacts such as dust and salt residue were edited as described previously (see, e.g., Marton et aL, supra). Resulting data files were evaluated by a series of quality-control criteria relating, first, to the image itself and, second, to known biological artifacts. For purposes of illustrating the impact of biases, experiments flagged as containing biological artifacts were noted by were not excluded from subsequent data analysis steps.\nClustering analysis of the perturbation response profiles was done as described, below, in Section 5.2.4. Specifically, the analysis comprised two steps. First, profiles and transcripts were selected from a data matrix and, second, experiments and responsive genes were grouped by agglomerative hierarchical clustering (see Hartigan, 1975, Clustering Algorithms, John Wiley & Sons, New York) where the similarity measure is the error-weighted correlation coefficient provided in Equation 11 below. Genes and experiments (i.e., columns and rows, respectively, of the data matrix) were then re-ordered according to the resulting clustering similarity trees. A statistical significance (i.e., a P-value) was also calculated for each bifurcation in the resulting cluster tree using the methods for determining statistical significance of cluster groups which are also described, below, in Section 5.2.4.\nUsing a two-color cDNA microarray hybridization assay (see, Schena et al., 1995, Science 270:467-470), three hundred expression profiles were generated in S. cerevisiae in which transcript levels of a mutant or compound-treated culture were compared to that of a wild-type or mock-treated culture. 276 deletion mutants, 11 tetracycline-regulatable alleles of essential genes (Gari et al., 1997, Yeast 13:837-848) and 13 well-characterized compounds were profile. Sixty-nine of the 276 deletions were of uncharacterized open reading frames (ORFs). To allow direct comparison of the behavior of all genes in response to all mutations and treatments, experiments were performed under a single condition: cells were grown at 30° C. in liquid synthetic complete SC) medium plus 2% glucose to mid-log phase, with the final optical densities of the experimental and control cultures closely matched (see Section 6.1 above). […]"}, "[1]": {"molecular_target": "T1, Erg2p, the sterol C-8 isomerase (Saccharomyces cerevisiae, UniProt P32352)", "T1 construct": "endogenous in cells; host or cells: S. cerevisiae, Saccharomyces Genome Deletion Consortium strain background", "T1 sequence (P32352 whole entry)": "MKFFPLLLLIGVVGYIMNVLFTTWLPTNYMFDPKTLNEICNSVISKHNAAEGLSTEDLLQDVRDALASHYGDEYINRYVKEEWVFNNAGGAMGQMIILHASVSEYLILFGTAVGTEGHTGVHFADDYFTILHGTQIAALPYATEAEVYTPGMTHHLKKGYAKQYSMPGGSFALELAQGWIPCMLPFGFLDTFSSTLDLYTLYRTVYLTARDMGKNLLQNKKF", "experiment": "Sterol profiles by gas chromatography of the nonsaponifiable fraction", "assay_type": "cell-based, yeast", "settings": "dyclonine-treated cells, FIG. 11F", "procedure": "Sterols were identified using pure standards and on the basis of relative retention times. Nonsaponifiables were isolated from yeast as previously described (Molzahn and Woods, 1972, J Gen. Microbiol. 72:339-348). Gas chromatography (GC) analyses of the nonsaponifiable fraction were analyzed on a HP5890 series II GC equipped with the HP chemstation software. The capillary column (DB5) was 15 m×0.25 mm i.d., 0.2 μm film thickness and was programmed from 195 fC to 300 fC (195 fC for 3 min., 5.5 fC/min. to 300 fC then held for 10 min.). The linear velocity was 30 cm/s using nitrogen and the carrier gas and all injections were run in the splitless mode."}, "yeast Erg2 enzyme": {"molecular_target": "yeast Erg2 enzyme (Saccharomyces cerevisiae, UniProt P32352)", "sequence (P32352 whole entry)": "as above", "settings": "cited from earlier work"}}, "note": "Entries after “also recorded” stand apart in the source; their conditions may differ."}
{"compound": "C[C@H]1c2cccc(O)c2C(=O)C2=C(O)[C@]3(O)C(=O)C(C(N)=O)=C(O)[C@@H](N(C)C)[C@@H]3[C@@H](O)[C@@H]21", "note": "[doxycycline]", "values": [{"measurement": "effect on the growth rate on wild type yeast cells", "setting": "wild type yeast cells", "result": "no significant effect"}]}
{"compound": "CCCCOc1ccc(C(=O)CCN2CCCCC2)cc1", "note": "[dyclonine]", "values": [{"measurement": "expression profile of drug-treated yeast compared with the compendium profiles", "setting": "S. cerevisiae; six hour treatment with 0.063% dyclonine (FIG. 11E)", "result": "correlates most closely with the response profile obtained from a cell line in which the erg2p gene has been “knocked out.”; also recorded: most closely resembled profiles resulting from perturbation of the ergosterol pathway"}, {"measurement": "sterol accumulating in treated cells and enzyme inferred to be inhibited (GC analysis)", "setting": "[1]", "result": "buildup of fecosterol, indicating inhibition of Erg2p"}, {"measurement": "sterol content of treated cells (GC analysis)", "setting": "[1]", "result": "abnormal"}]}
{"compound": "O=CC[C@@H](O)[C@H](O)[C@H](O)CO", "note": "[2-deoxy-D-glucose]", "values": [{"measurement": "mutant in the affected pathway whose profile the profile caused by the inhibitory compound resembles", "setting": "S. cerevisiae", "result": "gas1"}, {"measurement": "clustering of treatment profile with profiles from cell wall related mutants gas1Δ, spf1Δ, and amp1Δ", "setting": "S. cerevisiae", "result": "form a discrete cluster together with"}]}
{"compound": "N[C@H]1C(O)O[C@H](CO)[C@@H](O)[C@@H]1O", "note": "(stereo partly shown) [glucosamine]", "values": [{"measurement": "mutant in the affected pathway whose profile the profile caused by the inhibitory compound resembles", "setting": "S. cerevisiae", "result": "gas1"}, {"measurement": "clustering of treatment profile with profiles from cell wall related mutants gas1Δ, spf1Δ, and amp1Δ", "setting": "S. cerevisiae", "result": "form a discrete cluster together with"}]}
{"compound": "O=C(CCCN1CCC(O)(c2ccc(Cl)cc2)CC1)c1ccc(F)cc1", "note": "[haloperidol]", "values": [{"measurement": "binding and inhibition of the yeast Erg2 enzyme", "setting": "yeast Erg2 enzyme", "result": "binds and inhibits"}]}
{"compound": "C[C@@H]1C[C@@H]([C@H](O)CC2CC(=O)NC(=O)C2)C(=O)[C@@H](C)C1", "note": "[cycloheximide]", "values": [{"measurement": "mutant in the affected pathway whose profile the profile caused by the inhibitory compound resembles", "setting": "S. cerevisiae", "result": "yef3"}, {"measurement": "clustering of treatment profile with ribosome subunit deletion profiles", "setting": "S. cerevisiae; all regulations greater than 1.5-fold masked, small regulations used as basis of clustering", "result": "this profile cluster gains additional translation-related experiments"}]}
{"compound": "CC[C@H](C)C(=O)O[C@H]1C[C@@H](C)C=C2C=C[C@H](C)[C@H](CC[C@@H]3C[C@@H](O)CC(=O)O3)[C@H]21", "note": "[lovastatin]", "values": [{"measurement": "correlation of transcript profile of compound treatment with profile of reduced expression of the target gene", "setting": "S. cerevisiae; FIG. 9E", "result": "correlates highly with the profile produced by reducing expression of HMG2"}]}
{"compound": "NC(=O)NO", "note": "[hydroxyurea]", "values": [{"measurement": "DNA-damage/S-phase arrest inducible RNR2, RNR3 and RNR4 transcripts", "setting": "S. cerevisiae", "result": "induced"}, {"measurement": "mutant in the affected pathway whose profile the profile caused by the inhibitory compound resembles", "setting": "S. cerevisiae", "result": "rnr1"}]}
{"compound": "C/C=C1\\NC(=O)[C@H]2CSSCC/C=C/[C@H](CC(=O)N[C@H](C(C)C)C(=O)N2)OC(=O)[C@H](C(C)C)NC1=O", "note": "[FR901,228]", "values": [{"measurement": "mutant in the affected pathway whose profile the profile caused by the inhibitory compound resembles", "setting": "S. cerevisiae", "result": "rpd3"}]}
{"compound": "COS(C)(=O)=O", "note": "[MMS]", "values": [{"measurement": "DNA-damage/S-phase arrest inducible RNR2, RNR3 and RNR4 transcripts", "setting": "S. cerevisiae", "result": "induced"}]}
{"compound": "CCC(C)n1ncn(-c2ccc(N3CCN(c4ccc(OCC5COC(Cn6cncn6)(c6ccc(Cl)cc6Cl)O5)cc4)CC3)cc2)c1=O", "note": "(stereo not shown) [itraconzaole]", "values": [{"measurement": "mutant in the affected pathway whose profile the profile caused by the inhibitory compound resembles", "setting": "S. cerevisiae", "result": "erg/11"}]}
{"compound": "tunicamycin", "values": [{"measurement": "mutant in the affected pathway whose profile the profile caused by the inhibitory compound resembles", "setting": "S. cerevisiae", "result": "gas1"}, {"measurement": "clustering of treatment profile with profiles from cell wall related mutants gas1Δ, spf1Δ, and amp1Δ", "setting": "S. cerevisiae", "result": "form a discrete cluster together with"}]}
